In patent publication US9296720B2, “Carboxamide-substituted heteroaryl-pyrazoles and the use thereof” (AiCuris GmbH & Co. KG, priority 2011, dated 2016):
Where two headings read alike, the source gives them in different places.

Experiments:
Type in all cases: cell-based
[1] = tested on: HIV-1NL4-3 Wild Type; test: Luminescence reduction assay, MT4 cells infected with HIV-1NL4-3 luciferase reporter virus, wild type; details: 2% FCS
Outline: (§1)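 Compound dilution series in 1% DMSO, with 2% or 10% FCS, incubated 5 days at 37° C/5% CO2 with MT4 cells previously pellet-infected (2 h) by luciferase reporter NL4-3 virus, wild type or carrying RT resistance mutations. EC50 taken where luminescence from secreted luciferase falls to 50% of untreated infected control.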

[2] = tested on: HIV-1NL4-3 K103N-Y181C; test: Luminescence reduction assay, MT4 cells infected with HIV-1NL4-3 luciferase reporter virus, RT mutant K103N-Y181C
Outline: as §1

[3] = tested on: HIV-1LAI Wild Type; test: AlamarBlue viability assay, HIV-1LAI-infected MT4 cells; details: 10% FCS
Outline: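 MT4 cells infected with HIV-1LAI (MOI 0.01, supernatant infection) cultured 5 days at 37 °C with compounds in RPMI with 2% or 10% FCS, 1% DMSO final. AlamarBlue fluorescence after 3 h; EC50 as 50% protection relative to uninfected cells, CC50 from high-concentration cytotoxicity.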

[4] = Human immunodeficiency virus 1, MT4, MT4 cells
[5] = Human immunodeficiency virus 1, MT4, read-out: EC50 (μM) MT4 Cells HIV-1NL4-3 K103N-Y181C 2% FCS, MT4 cells, HIV-1NL4-3 K103N-Y181C, 2% FCS

| SMILES | EC50 [1, 4] [µM] | EC50 [2, 5] [µM] | EC50 [3, 4] [µM] | EC50 ([1]; MT4 cells) [µM] | EC50 ([2]; read-out: EC50 (μM) MT4 Cells HIV-1NL4-3 K103N-Y181C 2% FCS, MT4 cells, HIV-1NL4-3 K103N-Y181C, 2% FCS) [µM] | EC50 ([3]; MT4 cells) [µM] |
| --- | --- | --- | --- | --- | --- | --- |
| O=C1CN(C(=O)c2cc(-c3cc(Cl)cc(OC(F)(F)F)c3)n(-c3cccnc3)n2)CN1 [Example 76, 1-({5-[3-Chloro-5-(trifluoromethoxy)phenyl]-1-(pyridin-3-yl)-1H-pyrazol-3-yl}carbonyl)imidazolidin-4-one] | 0.014 | 0.019 | 0.207 | – | – | – |
| O=C1CN(C(=O)c2cc(-c3cc(Br)cc(OC(F)(F)F)c3)n(-c3cncc(Cl)c3)n2)CCN1 [Example 43, 4-({5-[3-Bromo-5-(trifluoromethoxy)phenyl]-1-(5-chloropyridin-3-yl)-1H-pyrazol-3-yl}carbonyl)piperazin-2-one] | 0.103 | 0.529 | 0.751 | – | – | – |
| O=C(c1cc(-c2cc(Br)cc(OC(F)(F)F)c2)n(-c2ccc(Cl)nc2)n1)N1CCS(=O)(=O)C1 [Example 38, {5-[3-Bromo-5-(trifluoromethoxy)phenyl]-1-(6-chloropyridin-3-yl)-1H-pyrazol-3-yl}(1,1-dioxido-1,3-thiazolidin-3-yl)methanone] | 0.023 | 0.007 | 1.22 | – | – | – |
| O=C1CN(C(=O)c2cc(-c3cncc(F)c3)n(-c3ccc(F)c(Cl)c3)n2)CCN1 [Example 99, 4-{[1-(3-Chloro-4-fluorophenyl)-5-(5-fluoropyridin-3-yl)-1H-pyrazol-3-yl]carbonyl}piperazin-2-one] | 0.113 | 1.31 | 0.258 | – | – | – |
| O=C1CN(C(=O)c2cc(-c3cc(F)cc(Cl)c3)n(-c3ccc(Cl)nc3)n2)CCN1 [Example 8, 4-{[5-(3-Chloro-5-fluorophenyl)-1-(6-chloropyridin-3-yl)-1H-pyrazol-3-yl]carbonyl}piperazin-2-one] | 0.06 | 0.29 | 0.205 | – | – | – |
| O=C(c1cc(-c2cc(F)cc(OCC(F)(F)F)c2)n(-c2cccnc2)n1)N1CC[S+]([O-])C1 (racemic) [Example 73, {5-[3-Fluoro-5-(2,2,2-trifluoroethoxy)phenyl]-1-(pyridin-3-yl)-1H-pyrazol-3-yl}(1-oxido-1,3-thiazolidin-3-yl)methanone] | 0.018 | 0.951 | 0.243 | – | – | – |
| O=C1CN(C(=O)c2cc(-c3ccnc(Cl)c3)n(-c3cccc(Cl)c3)n2)CCN1 [Example 115, 4-{[1-(3-Chlorophenyl)-5-(2-chloropyridin-4-yl)-1H-pyrazol-3-yl]carbonyl}piperazin-2-one] | 0.027 | 1.09 | 0.352 | – | – | – |
| O=C1CN(C(=O)c2cc(-c3cc(F)cc(Cl)c3)n(-c3ccc(Cl)nc3)n2)CN1 [Example 7, 1-{[5-(3-Chloro-5-fluorophenyl)-1-(6-chloropyridin-3-yl)-1H-pyrazol-3-yl]carbonyl}imidazolidin-4-one] | 0.01 | 0.018 | 0.064 | – | – | – |
| Cc1cc(-n2nc(C(=O)N3CCSC3)cc2-c2cc(F)cc(Cl)c2)ccn1 [Example 23, [5-(3-Chloro-5-fluorophenyl)-1-(2-methylpyridin-4-yl)-1H-pyrazol-3-yl](1,3-thiazolidin-3-yl)methanone] | 0.439 | > 3.3 | > 3.3 | – | – | – |
| N#Cc1cc(OC(F)(F)F)cc(-c2cc(C(=O)N3CNC(=O)C3)nn2-c2cccnc2)c1 [Example 88, 3-{3-[(4-Oxoimidazolidin-1-yl)carbonyl]-1-(pyridin-3-yl)-1H-pyrazol-5-yl}-5-(trifluoromethoxy)benzonitrile] | 0.015 | 0.026 | 0.186 | – | – | – |
| N#Cc1cc(OC(F)(F)F)cc(-c2cc(C(=O)N3CCNC(=O)C3)nn2-c2cccnc2)c1 [Example 89, 3-{3-[(3-Oxopiperazin-1-yl)carbonyl]-1-(pyridin-3-yl)-1H-pyrazol-5-yl}-5-(trifluoromethoxy)benzonitrile] | 0.258 | 0.523 | 0.129 | – | – | – |
| O=C(c1cc(-c2cc(F)cc(OCC(F)(F)F)c2)n(-c2ccc[n+]([O-])c2)n1)N1CCS(=O)(=O)C1 [Example 75, (1,1-Dioxido-1,3-thiazolidin-3-yl) {5-[3-fluoro-5-(2,2,2-trifluoroethoxy)phenyl]-1-(1-oxidopyridin-3-yl)-1H-pyrazol-3-yl}methanone] | 0.272 | > 3.3 | > 3.3 | – | – | – |
| O=C(c1cc(-c2cc(Br)cc(OC(F)(F)F)c2)n(-c2ccc[n+]([O-])c2)n1)N1CCS(=O)(=O)C1 [Example 33, {5-[3-Bromo-5-(trifluoromethoxy)phenyl]-1-(1-oxidopyridin-3-yl)-1H-pyrazol-3-yl}(1,1-dioxido-1,3-thiazolidin-3-yl)methanone] | 0.069 | 0.299 | 1.02 | – | – | – |
| O=C1CN(C(=O)c2cc(-c3cncc(OC(F)F)c3)n(-c3ccc(F)c(Cl)c3)n2)CN1 [Example 105, 1-({1-(3-Chloro-4-fluorophenyl)-5-[5-(difluoromethoxy)pyridin-3-yl]-1H-pyrazol-3-yl}carbonyl)imidazolidin-4-one] | 0.018 | 0.007 | 0.116 | – | – | – |
| O=C1CN(C(=O)c2cc(-c3ccnc(Cl)c3)n(-c3ccc(F)c(Cl)c3)n2)CCN1 [Example 113, 4-{[1-(3-Chloro-4-fluorophenyl)-5-(2-chloropyridin-4-yl)-1H-pyrazol-3-yl]carbonyl}piperazin-2-one] | 0.025 | 0.298 | 0.233 | – | – | – |
| O=C1CN(C(=O)c2cc(-c3cc(F)cc(Cl)c3)n(-c3ccnc(Cl)c3)n2)CCN1 [Example 15, 4-{[5-(3-Chloro-5-fluorophenyl)-1-(2-chloropyridin-4-yl)-1H-pyrazol-3-yl]carbonyl}piperazin-2-one] | 0.018 | 0.452 | 0.151 | – | – | – |
| O=C1CN(C(=O)c2cc(-c3cncc(Cl)c3)n(-c3ccc(F)c(Cl)c3)n2)CN1 [Example 100, 1-{[1-(3-Chloro-4-fluorophenyl)-5-(5-chloropyridin-3-yl)-1H-pyrazol-3-yl]carbonyl}imidazolidin-4-one] | 0.005 | 0.009 | 0.01 | – | – | – |
| O=C1CN(C(=O)c2cc(-c3cc(F)cc(Cl)c3)n(-c3ccnc(Cl)c3)n2)CN1 [Example 14, 1-{[5-(3-Chloro-5-fluorophenyl)-1-(2-chloropyridin-4-yl)-1H-pyrazol-3-yl]carbonyl}imidazolidin-4-one] | 0.005 | 0.067 | 0.096 | – | – | – |
| O=C1CN(C(=O)c2cc(-c3cncc(F)c3)n(-c3ccc(F)c(Cl)c3)n2)CN1 [Example 98, 1-{[1-(3-Chloro-4-fluorophenyl)-5-(5-fluoropyridin-3-yl)-1H-pyrazol-3-yl]carbonyl}imidazolidin-4-one] | 0.018 | 0.032 | 0.056 | – | – | – |
| O=C1CN(C(=O)c2cc(-c3cc(Br)cc(OC(F)(F)F)c3)n(-c3ccc(F)nc3)n2)CN1 [Example 39, 1-({5-[3-Bromo-5-(trifluoromethoxy)phenyl]-1-(6-fluoropyridin-3-yl)-1H-pyrazol-3-yl}carbonyl)imidazolidin-4-one] | 0.009 | 0.007 | 0.062 | – | – | – |
| O=C(c1cc(-c2cc(Cl)cc(OC(F)(F)F)c2)n(-c2ccc[n+](O)c2)n1)N1CCS(=O)(=O)C1 [Example 80, {5-[3-Chloro-5-(trifluoromethoxy)phenyl]-1-(1-oxidopyridin-3-yl)-1H-pyrazol-3-yl}(1,1-dioxido-1,3-thiazolidin-3-yl)methanone] | 0.164 | 0.075 | 2.79 | – | – | – |
| COc1cc(OC(F)(F)F)cc(-c2cc(C(=O)N3CCNC(=O)C3)nn2-c2ccnc(Cl)c2)c1 [Example 87, 4-({1-(2-Chloropyridin-4-yl)-5-[3-methoxy-5-(trifluoromethoxy)phenyl]-1H-pyrazol-3-yl}carbonyl)piperazin-2-one] | 0.11 | 0.068 | 0.618 | – | – | – |
| O=C1CN(C(=O)c2cc(-c3ccnc(Cl)c3)n(-c3ccc(F)c(Cl)c3)n2)CN1 [Example 112, 1-{[1-(3-Chloro-4-fluorophenyl)-5-(2-chloropyridin-4-yl)-1H-pyrazol-3-yl]carbonyl}imidazolidin-4-one] | 0.016 | 0.03 | 0.079 | – | – | – |
| O=C(c1cc(-c2cc(Cl)cc(OC(F)(F)F)c2)n(-c2cccnc2)n1)N1CCSC1 [Example 77, {5-[3-Chloro-5-(trifluoromethoxy)phenyl]-1-(pyridin-3-yl)-1H-pyrazol-3-yl}(1,3-thiazolidin-3-yl)methanone] | 0.067 | 0.364 | 0.861 | – | – | – |
| O=C1CN(C(=O)c2cc(-c3cncc(C(F)(F)F)c3)n(-c3cccc(Cl)c3)n2)CCN1 [Example 109, 4-({1-(3-Chlorophenyl)-5-[5-(trifluoromethyl)pyridin-3-yl]-1H-pyrazol-3-yl}carbonyl)piperazin-2-one] | 0.232 | 0.768 | 0.246 | – | – | – |
| O=C(c1cc(-c2cc(Br)cc(OC(F)(F)F)c2)n(-c2cccnc2)n1)N1CC[S+]([O-])C1 (racemic) [Example 31, {5-[3-Bromo-5-(trifluoromethoxy)phenyl]-1-(pyridin-3-yl)-1H-pyrazol-3-yl}(1-oxido-1,3-thiazolidin-3-yl)methanone] | – | – | – | 0.017 | 0.045 | 0.18 |
